Assay results as given in US10315996B2, “ROR gamma (RORγ) modulators” (LEAD PHARMA HOLDING B.V., priority 2015, dated 2019).

What follows are molecules tested against T1, RORγ (Homo sapiens, UniProt P51449) (assay: RORγ GAL4 reporter gene assay). Conditions: inhibition of RORγ activity, GAL4-RORγ-LBD luciferase reporter in 293FT cells, overnight incubation; read-out: mean pIC50 (converted).
T1 construct: expressed in transfected cells; host or cells: 293FT cells (Invitrogen), expression vector pFN26A (Promega)
T1 sequence (P51449 269-508 limits assumed): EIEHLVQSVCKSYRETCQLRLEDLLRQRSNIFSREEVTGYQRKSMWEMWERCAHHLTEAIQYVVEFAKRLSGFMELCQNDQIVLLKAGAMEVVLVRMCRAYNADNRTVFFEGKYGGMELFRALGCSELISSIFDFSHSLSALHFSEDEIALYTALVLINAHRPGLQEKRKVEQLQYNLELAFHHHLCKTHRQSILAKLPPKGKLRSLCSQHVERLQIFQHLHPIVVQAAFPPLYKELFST
Assay type: cell-based
Protocol: Example inhibitors 1-166 were tested for their ability to inhibit RORγ activity in a RORγ GAL4 reporter gene assay. The assay procedure and results are described below.
RORγ GAL4 Reporter Gene Assay Description
A GAL4 one-hybrid reporter system employing luciferase readout was established to determine inhibition of RORγ in 293FT cells. The RORγ ligand-binding domain (LBD) was fused to the yeast GAL4 DNA binding domain (DBD) and placed under the control of the human cytomegalovirus (CMV) immediate early promoter, using expression vector pFN26A (Promega) and standard recombinant DNA cloning methods. To serve as a control in the assay, a similar vector was generated in which the GAL4-DBD was fused to Herpes simplex virus protein 16 (VP16), a constitutive transcriptional activator.
To monitor the inhibitory effect of compounds on RORγ, a transcriptional reporter construct was used. The pGL4.35 vector (Promega) contains nine copies of the GAL4 Upstream Activator Sequence (UAS). This sequence drives the transcription of the luciferase reporter gene luc2P in response to binding of a fusion protein containing the GAL4 DNA binding domain, as for example expressed by the GAL4-RORγ-LBD and GAL4-VP16 expression vectors described above. To allow a GAL4 fusion protein to drive the expression of the luciferase reporter, the pGL4.35 expression vector and the appropriate GAL4 fusion protein expression vector were bulk transfected in the 293FT cells using standard transfection techniques.
The day after transfection, cells were plated into 96 well plates, test compound was added and the plates were incubated overnight. Subsequently, the firefly luciferase activity was quantified using luciferase detection reagent and luminescence readout.
Detailed Assay Description
293FT cells (Invitrogen) were transfected with a GAL4 fusion protein expression vector (as described above) and the transcriptional reporter construct (pGL4.35, Promega). 60 μL of TransIT-293 transfection reagent (Mirus Bio) was added drop wise to 1500 μl Opti-MEM I Reduced Serum Medium (Invitrogen) and incubated at room temperature (RT) for 5 to 20 minutes. 1500 μL of this reagent mixture was added to 5 μg of GAL4 fusion protein expression vector and 5 μg of the transcriptional reporter construct, and incubated at RT for 20 minutes.
To harvest 293FT cells from a T75 flask, first the culture medium was taken off the cells. Subsequently, the cells were washed with Phosphate Buffered Saline (PBS) (Lonza), after which the PBS was removed. To dissociate the cells, 1 ml of TrypLE Express (Invitrogen) was added to the flask, followed by incubation at RT until the cells visually started to detach. Cells were collected in 5 mL of assay medium (DMEM culture medium (Lonza), 10% dialyzed FBS (Invitrogen) and Pen/Strep (Lonza)) to achieve a single cell suspension. 10×10^6 cells were spun down and re-suspended in 10 mL of assay medium. Subsequently, the cell suspension was added to the transfection mix tube, and then transferred as a whole to a T75 flask (Greiner), followed by overnight (16-24 hours) incubation at 37° C. and 5% CO2.
For compound screening, the cells were harvested (as described above) and counted. 13×10^6 cells were spun down, the supernatant was aspirated and the cells were re-suspended in 17.3 mL of assay medium obtaining a cell suspension of 0.75×10^6 cells/mL. 80 μL of cell suspension (60,000 cells) was plated per well into a white, flat bottom, tissue culture treated, 96 well screening plates (Greiner).
Test compounds were diluted, starting from a 10 mM dimethylsulfoxide (DMSO) stock solution, to serial dilutions in DMSO at 500× the final test concentration. Subsequently, these solutions were diluted to 5× the final test concentration in two 10-fold-dilution steps in assay medium. The final DMSO concentration of the 5× test compound solution was 1%. […]

Row | Compound | IC50 [nM]
1 | CCNC(=O)c1ccc(NC(=O)Cc2ccc(S(=O)(=O)CC3CC3)cc2)cc1 [Example 2, 4-[2-(4-cyclopropylmethanesulfonylphenyl)acetamido]-N-ethylbenzamide] | ≤ 1000
2 | CN(C(=O)c1ccc(NC(=O)Cc2ccc(S(=O)(=O)CC3CC3)cc2)cc1)c1ccccc1 [Example 3, 4-[2-(4-cyclopropylmethanesulfonylphenyl)acetamido]-N-methyl-N-phenylbenzamide] | ≤ 10
3 | CN(Cc1ccccc1)C(=O)c1ccc(NC(=O)Cc2ccc(S(=O)(=O)CC3CC3)cc2)cc1 [Example 5, N-benzyl-4-[2-(4-cyclopropylmethanesulfonylphenyl)acetamido]-N-methylbenzamide] | ≤ 100
4 | CCCN(C)C(=O)c1ccc(NC(=O)Cc2ccc(S(=O)(=O)CC3CC3)cc2)cc1 [Example 7, 4-[2-(4-cyclopropylmethanesulfonylphenyl)acetamido]-N-methyl-N-propylbenzamide] | ≤ 1000
5 | CC(C)CN(C)C(=O)c1ccc(NC(=O)Cc2ccc(S(=O)(=O)CC3CC3)cc2)cc1 [Example 8, 4-[2-(4-cyclopropylmethanesulfonylphenyl)acetamido]-N-methyl-N-(2-methylpropyl)benzamide] | ≤ 1000
6 | CN(CCc1ccccc1)C(=O)c1ccc(NC(=O)Cc2ccc(S(=O)(=O)CC3CC3)cc2)cc1 [Example 10, 4-[2-(4-cyclopropylmethanesulfonylphenyl)acetamido]-N-methyl-N-(2-phenylethyl)benzamide] | ≤ 100
7 | O=C(Cc1ccc(S(=O)(=O)CC2CC2)cc1)Nc1ccc(C(=O)N(Cc2ccccc2)Cc2ccccc2)cc1 [Example 12, N,N-dibenzyl-4-[2-(4-cyclopropylmethanesulfonylphenyl)acetamido]benzamide] | ≤ 100
8 | O=C(Cc1ccc(S(=O)(=O)CC2CC2)cc1)Nc1ccc(C(=O)NCc2ccccc2)cc1 [Example 13, N-benzyl-4-[2-(4-cyclopropylmethanesulfonylphenyl)acetamido]benzamide] | ≤ 1000
9 | CC(C)CN(CC(C)C)C(=O)c1ccc(NC(=O)Cc2ccc(S(=O)(=O)CC3CC3)cc2)cc1 [Example 15, 4-[2-(4-cyclopropylmethanesulfonylphenyl)acetamido]-N,N-bis(2-methylpropyl)benzamide] | ≤ 100
10 | CCN(C(=O)c1ccc(NC(=O)Cc2ccc(S(=O)(=O)CC3CC3)cc2)cc1)c1ccccc1 [Example 16, 4-[2-(4-cyclopropylmethanesulfonylphenyl)acetamido]-N-ethyl-N-phenylbenzamide] | ≤ 10
11 | CCCN(Cc1ccccc1)C(=O)c1ccc(NC(=O)Cc2ccc(S(=O)(=O)CC3CC3)cc2)cc1 [Example 21, N-benzyl-4-[2-(4-cyclopropylmethanesulfonylphenyl)acetamido]-N-propylbenzamide] | ≤ 10
12 | CCCN(Cc1ccccc1)C(=O)c1ccc(NC(=O)Cc2ccc(S(=O)(=O)NC3CC3)cc2)cc1 [Example 23, N-benzyl-4-{2-[4-(cyclopropylsulfamoyl)phenyl]acetamido}-N-propylbenzamide] | ≤ 1000
13 | CCOC(=O)C1CCCN(C(=O)c2ccc(NC(=O)Cc3ccc(S(=O)(=O)CC4CC4)cc3)cc2)C1 (stereo not shown) [Example 25, ethyl 1-{4-[2-(4-cyclopropylmethanesulfonylphenyl)acetamido]benzoyl}piperidine-3-carboxylate] | ≤ 1000
14 | CN(C(=O)c1ccc(NC(=O)Cc2ccc(S(=O)(=O)CC3CC3)cc2)cc1)C(C)(C)C [Example 26, N-tert-butyl-4-[2-(4-cyclopropylmethanesulfonylphenyl)acetamido]-N-methylbenzamide] | ≤ 1000
15 | O=C(Cc1ccc(S(=O)(=O)CC2CC2)cc1)Nc1ccc(C(=O)N(C2CCC2)C2CCC2)cc1 [Example 27, N,N-dicyclobutyl-4-[2-(4-cyclopropylmethanesulfonylphenyl)acetamido]benzamide] | ≤ 100
16 | CCN(C(=O)c1ccc(NC(=O)Cc2ccc(S(=O)(=O)CC3CC3)cc2)cc1)c1cccc(C)c1 [Example 31, 4-[2-(4-cyclopropylmethanesulfonylphenyl)acetamido]-N-ethyl-N-(3-methylphenyl)benzamide] | ≤ 10

Other lines, results leading:

Row | IC50 [nM] | Compound
17 | ≤ 1000 | CCCNC(=O)c1ccc(NC(=O)Cc2ccc(S(=O)(=O)CC3CC3)cc2)cc1 [Example 1, 4-[2-(4-cyclopropylmethanesulfonylphenyl)acetamido]-N-propylbenzamide]
18 | ≤ 1000 | CC(C)(C)NC(=O)c1ccc(NC(=O)Cc2ccc(S(=O)(=O)CC3CC3)cc2)cc1 [Example 11, N-tert-butyl-4-[2-(4-cyclopropylmethanesulfonylphenyl)acetamido]benzamide]
19 | ≤ 100 | CC(NC(=O)c1ccc(NC(=O)Cc2ccc(S(=O)(=O)CC3CC3)cc2)cc1)c1ccccc1 (stereo not shown) [Example 14, 4-[2-(4-cyclopropylmethanesulfonylphenyl)acetamido]-N-(1-phenylethyl)benzamide]
20 | ≤ 100 | CN(C(=O)c1ccc(NC(=O)Cc2ccc(S(=O)(=O)CC3CC3)cc2)cc1)c1ccccn1 [Example 17, 4-[2-(4-cyclopropylmethanesulfonylphenyl)acetamido]-N-methyl-N-(pyridin-2-yl)benzamide]
21 | ≤ 100 | C[C@@H](c1ccccc1)N(C)C(=O)c1ccc(NC(=O)Cc2ccc(S(=O)(=O)CC3CC3)cc2)cc1 [Example 18, 4-[2-(4-cyclopropylmethanesulfonylphenyl)acetamido]-N-methyl-N-[(1S)-1-phenylethyl]benzamide]
22 | ≤ 10 | CCCN(C(=O)c1ccc(NC(=O)Cc2ccc(S(=O)(=O)CC3CC3)cc2)cc1)c1ccccc1 [Example 19, 4-[2-(4-cyclopropylmethanesulfonylphenyl)acetamido]-N-phenyl-N-propylbenzamide]
23 | ≤ 10 | CCCN(C(=O)c1ccc(NC(=O)Cc2ccc(S(=O)(=O)CC3CC3)cc2)cc1)c1cccnc1 [Example 20, 4-[2-(4-cyclopropylmethanesulfonylphenyl)acetamido]-N-propyl-N-(pyridin-3-yl)benzamide]
24 | ≤ 100 | CCCN(C(=O)c1ccc(NC(=O)Cc2ccc(S(=O)(=O)NC3CC3)cc2)cc1)c1ccccc1 [Example 22, 4-{2-[4-(cyclopropylsulfamoyl)phenyl]acetamido}-N-phenyl-N-propylbenzamide]
25 | ≤ 100 | O=C(Cc1ccc(S(=O)(=O)NC2CC2)cc1)Nc1ccc(C(=O)N(Cc2ccccc2)Cc2ccccc2)cc1 [Example 24, N,N-dibenzyl-4-{2-[4-(cyclopropylsulfamoyl)phenyl]acetamido}benzamide]
26 | ≤ 1000 | CC1CCCCN1C(=O)c1ccc(NC(=O)Cc2ccc(S(=O)(=O)CC3CC3)cc2)cc1 (stereo not shown) [Example 28, 2-(4-cyclopropylmethanesulfonylphenyl)-N-[4-(2-methylpiperidine-1-carbonyl)phenyl]acetamide]
27 | ≤ 10 | CCN(C(=O)c1ccc(NC(=O)Cc2ccc(S(=O)(=O)CC3CC3)cc2)cc1)c1ccc(C)cc1 [Example 29, 4-[2-(4-cyclopropylmethanesulfonylphenyl)acetamido]-N-ethyl-N-(4-methylphenyl)benzamide]
28 | ≤ 100 | CCN(C(=O)c1ccc(NC(=O)Cc2ccc(S(=O)(=O)CC3CC3)cc2)cc1)c1cccc(C(=O)OC)c1 [Example 30, methyl 3-{N-ethyl-4-[2-(4-cyclopropylmethanesulfonylphenyl)acetamido]benzamido}benzoate]
